Measured values from article PMC8708872, “Discovery of a Novel Template, 7-Substituted 7-Deaza-4′-Thioadenosine Derivatives as Multi-Kinase Inhibitors” (Pharmaceuticals, 2021).

Key:
CYP2C9 = target: T1, CYP2C9 (Homo sapiens, UniProt P11712); experiment: CYP inhibition assay; format: in vitro ADME; conditions: human, human liver microsomes, pH 7.4, probe Diclofenac 10 μM (in a cocktail of five substrates); inhibitor 0.1 μM; read-out: Percentage of enzyme remaining after inhibition, CYP2C9
T1 construct: Human liver microsomes (0.25 mg/mL); from tissue; host or cells: human liver microsomes
T1 sequence (P11712 whole entry): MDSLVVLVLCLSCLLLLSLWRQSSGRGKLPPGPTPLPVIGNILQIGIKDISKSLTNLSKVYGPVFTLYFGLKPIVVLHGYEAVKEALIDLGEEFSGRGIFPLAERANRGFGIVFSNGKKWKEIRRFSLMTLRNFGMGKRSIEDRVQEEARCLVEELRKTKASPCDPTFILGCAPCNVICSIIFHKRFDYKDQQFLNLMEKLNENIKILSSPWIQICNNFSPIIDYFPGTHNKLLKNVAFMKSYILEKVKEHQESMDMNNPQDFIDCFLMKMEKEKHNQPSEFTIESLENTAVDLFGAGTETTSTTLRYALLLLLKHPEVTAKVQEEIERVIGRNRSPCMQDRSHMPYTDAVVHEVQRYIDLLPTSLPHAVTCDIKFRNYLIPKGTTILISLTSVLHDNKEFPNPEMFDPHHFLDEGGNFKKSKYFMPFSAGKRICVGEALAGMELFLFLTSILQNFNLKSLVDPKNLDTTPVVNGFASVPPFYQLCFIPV
Method: (§1) Human liver microsomes (0.25 mg/mL), 0.1 M phosphate buffer (pH 7.4), a cocktail of five […] substrates (Phenacetin 50 μM, Diclofenac 10 μM, S-mephenytoin 100 μM, Dextromethorphan 5 μM, Midazolam 2.5 μM), and test compound (10 μM concentration) was pre-incubated for 5 min at 37 °C. NADPH generation system solution was added and incubated for 15 min at 37 °C. In order to terminate the reaction, acetonitrile solution containing an internal standard (Terfenadine) was added and centrifuged for 5 min (14,000× g […], 4 °C). The supernatant was injected into the LC-MS/MS system to analyze the metabolites of the substrates simultaneously. Metabolites of each substrate produced during the reaction were analyzed using the Shimadzu Nexera XR system and TSQ vantage (Thermo). Kinetex C18 column (2.1 × 100 mm, 2.6 μm particle size; Phenomenex, USA) was used for HPLC. The mobile phase used contained 0.1% formic acid in distilled water (A) and 0.1% formic acid containing acetonitrile (B). The generated metabolites were quantified using MRM (Multiple Reaction Monitoring) and Xcalibur (version 1.6.1) was used for data analysis.

CYP2C19 = target: T2, CYP2C19 (Homo sapiens, UniProt P33261); experiment: CYP inhibition assay; format: in vitro ADME; conditions: human, human liver microsomes, pH 7.4, probe S-mephenytoin 100 μM (in a cocktail of five substrates); inhibitor 0.1 μM; read-out: Percentage of enzyme remaining after inhibition, CYP2C19
T2 construct: Human liver microsomes (0.25 mg/mL); from tissue; host or cells: human liver microsomes
T2 sequence (P33261 whole entry): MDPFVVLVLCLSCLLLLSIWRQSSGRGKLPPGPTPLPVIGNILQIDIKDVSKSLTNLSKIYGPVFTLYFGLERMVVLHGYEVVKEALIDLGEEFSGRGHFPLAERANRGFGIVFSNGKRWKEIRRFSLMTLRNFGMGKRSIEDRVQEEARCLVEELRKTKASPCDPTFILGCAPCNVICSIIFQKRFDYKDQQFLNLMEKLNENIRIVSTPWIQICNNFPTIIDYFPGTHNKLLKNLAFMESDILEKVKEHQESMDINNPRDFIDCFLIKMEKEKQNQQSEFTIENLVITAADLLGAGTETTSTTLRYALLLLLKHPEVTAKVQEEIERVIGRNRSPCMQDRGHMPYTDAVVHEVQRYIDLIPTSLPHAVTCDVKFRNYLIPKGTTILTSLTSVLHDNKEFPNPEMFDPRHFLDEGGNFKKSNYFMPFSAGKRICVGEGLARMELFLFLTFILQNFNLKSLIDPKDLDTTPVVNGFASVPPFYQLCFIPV
Method: as §1

CYP1A2 = target: T3, CYP1A2 (Homo sapiens, UniProt P05177); experiment: CYP inhibition assay; format: in vitro ADME; conditions: human, human liver microsomes, pH 7.4, probe Phenacetin 50 μM (in a cocktail of five substrates); inhibitor 0.1 μM; read-out: Percentage of enzyme remaining after inhibition, CYP1A2
T3 construct: Human liver microsomes (0.25 mg/mL); from tissue; host or cells: human liver microsomes
T3 sequence (P05177 whole entry): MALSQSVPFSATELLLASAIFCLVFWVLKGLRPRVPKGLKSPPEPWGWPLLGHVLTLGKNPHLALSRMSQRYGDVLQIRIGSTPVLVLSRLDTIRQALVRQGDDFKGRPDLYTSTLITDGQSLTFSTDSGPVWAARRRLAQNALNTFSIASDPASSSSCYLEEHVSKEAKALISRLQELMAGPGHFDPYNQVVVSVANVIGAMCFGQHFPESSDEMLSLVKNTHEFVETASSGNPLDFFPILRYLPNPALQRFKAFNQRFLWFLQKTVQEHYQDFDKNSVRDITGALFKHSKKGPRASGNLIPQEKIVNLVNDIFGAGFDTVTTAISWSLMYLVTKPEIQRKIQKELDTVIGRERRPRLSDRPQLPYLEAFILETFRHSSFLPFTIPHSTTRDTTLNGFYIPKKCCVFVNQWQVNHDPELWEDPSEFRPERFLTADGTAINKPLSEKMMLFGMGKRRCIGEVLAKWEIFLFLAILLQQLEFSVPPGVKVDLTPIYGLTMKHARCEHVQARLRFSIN
Method: as §1

ACHN = experiment: Antiproliferative activity against ACHN; format: cell-based; conditions: Homo sapiens, renal cancer cell line expressing CK1δ and DYRK2, read-out: IC50 cell growth of ACHN
KM12 = experiment: Antiproliferative activity against KM12; format: cell-based; conditions: Homo sapiens, colon cancer cell line highly expressing NTRK1/2/3 and DYRK3, read-out: IC50 cell growth of KM12

SMILES | remaining at 15 min, 0.1 μM (CYP2C9) [%] | remaining at 15 min, 0.1 μM (CYP2C19) [%] | remaining at 15 min, 0.1 μM (CYP1A2) [%] | IC50 (ACHN) [nM] | IC50 (KM12) [nM]
CC(=O)N1CCN(c2ccc(OCC3COC(Cn4ccnc4)(c4ccc(Cl)cc4Cl)O3)cc2)CC1 (centres unmarked) [Ketoconazole, reference compound] | 93.6 | 93.6 | 95.7 |  | 
COc1cccc2c1C(=O)c1c(O)c3c(c(O)c1C2=O)C[C@@](O)(C(=O)CO)C[C@@H]3O[C@H]1C[C@H](N)[C@H](O)[C@H](C)O1 [doxorubicin, reference compound] |  |  |  | 40 | 120
